Here are results for 1 compound from US5164380A, “Process for preparing piroxicam/cyclodextrin complexes, the products obtained and their pharmaceutical compositions” (Chiesi Farmaceutici S.p.A., priority 1990, dated 1992).

In brackets after ≈: the same amount, converted by molar mass.

The nature of data set [1]: Solubilization kinetics / solubility test (oversaturation, paddle method, continuous flow cell). The text has this:
This test, effected within a few minutes from the beginning of the solubilization process, provides data to be considered as one of the most important parameters for the biopharmaceutical evaluation of the products.

The nature of data set [2]: Water-wettability by water contact angle analysis. It counts as physicochemical. The text has this:
Data are given relevant to water-wettability determined by water contact angle analysis, true density determined by Helium pycnometry, and surface area determined by mercury porosimetry (Table 2).

For data set [3] the following is noted: background; cited from earlier work.
The conditions of data set [4]: background, cited from earlier work.

In the case of `CN1C(C(=O)Nc2ccccn2)=C(O)c2ccccc2S1(=O)=O` [piroxicam], the “C max (oversaturation value)” value in data set [1] (acetate buffer pH 5.0, 500 ml, 125 rpm, 37 °C, product at least 10 times saturation quantity) amounted to 30000 ng/mL. In data set [1] (acetate buffer, pH 5, aqueous buffer), this compound yielded a thermodynamic solubility of 30 µg/mL (≈ 90.5 µM). The compound also came in with a water contact angle in data set [2] of 76 °. The “solubility (in words)” value in data set [3] was “poorly soluble in water and in biological fluids at physiological pH values”. For the same compound, the “analgesic and anti-inflammatory activity (in words)” value in data set [4] is “considerable analgesic and anti-inflammatory activity”. The “absorption (in words)” value in data set [4] (oral and rectal routes) was “slow and gradual absorption via both the oral and rectal routes”.
